According to PMC11881160 (International Journal of Nanomedicine, 2025):
Marks after values point to notes of the source that are not given here.

What was measured:
[1] = PBPK model input; ATV value marked (acid); ref Drugbank; cited from earlier work
[2] = In vitro dissolution test; assay type: physicochemical; conditions: 100 rpm, n=3
[3] = Pharmacokinetic study of LUT and LUT-NS-LP in rats; assay type: in vivo, Sprague-Dawley (SD) rats
[4] = tested on: CYP450s of Rat Liver Microsomes (RLMs); experiment: In vitro CYP450 metabolism of ATV and inhibition by LUT in rat liver microsomes; conditions: CYP450s mixture of RLMs, Lineweaver-Burk plots
[5] = stated in the discussion without reference; species not given; cited from earlier work
[6] = male, Sprague-Dawley, rat, plasma, po, 200 mg/kg

Drug release ([2]; pH 1.2 buffer containing 0.05% Tween 80, after 120 min, 37°C): 36.58 ± 0.99% | Drug release ([2]; pH 6.8 phosphate buffer containing 0.05% Tween 80, 37°C): 59.10 ± 3.13% | AUC(0-inf) [3, 6]: 4230 ± 1510 ng·h/mL | AUC(0-t) [3, 6]: 3840 ± 1390 ng·h/mL | CL/F [3, 6]: 880 mL/min/kg | Cmax [3, 6]: 1140 ± 320 ng/mL | MRT inf [3, 6]: 4.02 ± 1.68 h | MRT last [3, 6]: 2.88 ± 0.96 h | Tmax [3, 6]: 0.92 ± 0.59 h | Vd/F [3, 6]: 178 ± 85.1 L/kg | half-life [3, 6]: 2.6 ± 1.52 h | F (bioavailability) ([3]; relative to LUT, rats, oral 200 mg/kg): 1 fold | Form of inhibition of ATV metabolism by LUT [4]: non-competitive
Compound: O=c1cc(-c2ccc(O)c(O)c2)oc2cc(O)cc(O)c12 [LUT, Luteolin]
pKa [1]: 6.57^a | Oral absolute bioavailability [5]: under 5%
